# Test results reported in patent US20070117743A1, “New antitumoral compounds” (priority 2003, published 2007).
# Where two headings read alike, the source gives them in different places. Where a SMILES comes first, the peptide text is derived from it. Bridges are numbered along the chain shown (N, C = ends). [ ]: non-standard residue; d: D form. The star is where a group is joined. Hexanoyl(4S-Me) = CC[C@H](C)CCC(=O)*; d(aIle) = CC[C@H](C)[C@@H](N)C(=O)O; d(aThr) = C[C@@H](O)[C@@H](N)C(=O)O; Orn = NCCC[C@H](N)C(=O)O; Dhb = C/C=C(\N)C(=O)O
# Legend:
# Type in all cases: cell-based, human
# [1] = tested on: PANC-1; assay: SRB colorimetric assay of cell growth and viability, PANC-1; conditions: 48 hours exposure; for CC50: read-out: LC50 PANC-1
# [2] = tested on: IGROV-ET; assay: SRB colorimetric assay of cell growth and viability, IGROV-ET; conditions: 48 hours exposure; for CC50: read-out: LC50 IGROV-ET
# [3] = tested on: LoVo; assay: SRB colorimetric assay of cell growth and viability, LoVo; conditions: 48 hours exposure; for CC50: read-out: LC50 LOVO
# [4] = tested on: SK-MEL-28; assay: SRB colorimetric assay of cell growth and viability, SK-MEL-28; conditions: 48 hours exposure; for CC50: read-out: LC50 MEL-28
# [5] = tested on: HeLa-APL; assay: SRB colorimetric assay of cell growth and viability, HeLa-APL; conditions: 48 hours exposure; for CC50: read-out: LC50 HELA-APL
# [6] = tested on: HeLa; assay: SRB colorimetric assay of cell growth and viability, HeLa; conditions: 48 hours exposure; for CC50: read-out: LC50 HELA
# [7] = tested on: LoVo-Dox; assay: SRB colorimetric assay of cell growth and viability, LoVo-Dox; conditions: 48 hours exposure; for CC50: read-out: LC50 LOVO-DOX
# Summary of the method: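 SRB staining (0.4% wt/vol in 1% acetic acid, 10 min, room temperature) of cells fixed with 50% TCA follows a 48-hour exposure to compound. Plating density is 5×10^3 cells/well, and the OD is taken at 490 nm.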
# [8] = tested on: DU-145; assay: SRB colorimetric assay of cell growth and viability, DU-145; conditions: 48 hours exposure
# [9] = tested on: IGROV-1; assay: SRB colorimetric assay of cell growth and viability, IGROV-1; conditions: 48 hours exposure
# [10] = tested on: A-549; assay: SRB colorimetric assay of cell growth and viability, A-549; conditions: 48 hours exposure; for GI50: read-out: GI50 A-549; for CC50: read-out: LC50 A-549
# [11] = tested on: K-562; assay: SRB colorimetric assay of cell growth and viability, K-562; conditions: 48 hours exposure; for CC50: read-out: LC50 K-562
# [12] = tested on: HT-29; assay: SRB colorimetric assay of cell growth and viability, HT-29; conditions: 48 hours exposure; for GI50: read-out: GI50 HT-29; for CC50: read-out: LC50 HT-29
# [13] = tested on: SK-BR-3; assay: SRB colorimetric assay of cell growth and viability, SK-BR-3; conditions: 48 hours exposure
smiles,measurement,setting,value
"C/C=C1\NC(=O)[C@H](Cc2ccc(OC)cc2)NC(=O)[C@@H](C(C)C)NC(=O)[C@@H]([C@@H](C)CC)NC(=O)[C@H](NC(=O)[C@H](NC(=O)[C@H](CCCN)NC(=O)[C@H]2CCCN2C(=O)[C@H](NC(=O)[C@@H](NC(=O)[C@@H](NC(=O)[C@H](NC(=O)CC[C@@H](C)CC)C(C)C)[C@@H](C)O)C(C)C)C(C)C)[C@@H](C)CC)[C@@H](C)OC(=O)[C@H](C(C)C)NC1=O [Compound 75, [Tyr(Me)^3, (4S)-MeHex^14]-KF] ({Hexanoyl(4S-Me)}-[dV]TV[dV][dP][Orn][d(aIle)][d(aThr)][d(aIle)][dV]Y(Me)[Dhb]V; ester 8-C)",GI50,[1]; SRB,1700 nM
same,TGI PANC-1,[1]; SRB,3.08E−06 Molar
same,CC50,[1]; SRB,5590 nM
same,GI50,[2]; SRB,380 nM
same,TGI IGROV-ET,[2]; SRB,9.09E−07 Molar
same,CC50,[2]; SRB,2410 nM
same,GI50,[3]; SRB,126 nM
same,TGI LOVO,[3]; SRB,2.22E−07 Molar
same,CC50,[3]; SRB,391 nM
same,GI50,[4]; SRB,975 nM
same,TGI MEL-28,[4]; SRB,1.82E−06 Molar
same,CC50,[4]; SRB,3400 nM
same,GI50,[5]; SRB,942 nM
same,TGI HELA-APL,[5]; SRB,1.78E−06 Molar
same,CC50,[5]; SRB,3380 nM
same,GI50,[6]; SRB,509 nM
same,TGI HELA,[6]; SRB,1.18E−06 Molar
same,CC50,[6]; SRB,2500 nM
same,GI50,[7]; SRB,137 nM
same,TGI LOVO-DOX,[7]; SRB,2.27E−07 Molar
same,CC50,[7]; SRB,379 nM
same,GI50,[8]; SRB,749 nM
same,LC50 (concentration causing 50% net cell kill),[8]; SRB,3160 nM
same,TGI DU-145,[8]; SRB,1.54E−06 Molar
same,GI50,[9]; SRB,350 nM
same,LC50 (concentration causing 50% net cell killing),[9]; SRB,2360 nM
same,TGI IGROV,[9]; SRB,8.36E−07 Molar
same,TGI A-549,[10]; SRB,1.91E−06 Molar
same,GI50,[10]; SRB,1030 nM
same,CC50,[10]; SRB,3550 nM
same,GI50,[11]; SRB,533 nM
same,TGI K-562,[11]; SRB,2.15E−06 Molar
same,CC50,[11]; SRB,6630 nM
same,TGI HT-29,[12]; SRB,2.80E−07 Molar
same,GI50,[12]; SRB,158 nM
same,CC50,[12]; SRB,495 nM
same,GI50,[13]; SRB,251 nM
same,LC50,[13]; SRB,2380 nM
same,TGI SK-BR-3,[13]; SRB,6.03E−07 Molar
"C/C=C1\NC(=O)[C@H](Cc2ccc(F)c(F)c2)NC(=O)[C@@H](C(C)C)NC(=O)[C@@H]([C@@H](C)CC)NC(=O)[C@H](NC(=O)[C@H](NC(=O)[C@H](CCCN)NC(=O)[C@H]2CCCN2C(=O)[C@H](NC(=O)[C@@H](NC(=O)[C@@H](NC(=O)[C@H](NC(=O)CCCC(C)C)C(C)C)[C@@H](C)O)C(C)C)C(C)C)[C@@H](C)CC)[C@@H](C)OC(=O)[C@H](C(C)C)NC1=O [Compound 84, [Phe(3,4-F2)^3]-KF]",GI50,[1]; PANC-1,725 nM
same,TGI PANC-1,[1]; PANC-1,1.17E−06 Molar
same,CC50,[1]; PANC-1,1840 nM
same,GI50,[2]; IGROV-ET,65.1 nM
same,TGI IGROV-ET,[2]; IGROV-ET,1.16E−07 Molar
same,CC50,[2]; IGROV-ET,343 nM
same,GI50,[3]; LOVO,31.7 nM
same,TGI LOVO,[3]; LOVO,7.25E−08 Molar
same,CC50,[3]; LOVO,150 nM
same,GI50,[4]; MEL-28,224 nM
same,TGI MEL-28,[4]; MEL-28,3.55E−07 Molar
same,CC50,[4]; MEL-28,561 nM
same,GI50,[5]; HELA-APL,117 nM
same,TGI HELA-APL,[5]; HELA-APL,2.49E−07 Molar
same,CC50,[5]; HELA-APL,467 nM
same,GI50,[6]; HELA,70.6 nM
same,TGI HELA,[6]; HELA,2.17E−07 Molar
same,CC50,[6]; HELA,451 nM
same,GI50,[7]; LOVO-DOX,32.3 nM
same,TGI LOVO-DOX,[7]; LOVO-DOX,6.88E−08 Molar
same,CC50,[7]; LOVO-DOX,176 nM
same,GI50,[8]; DU-145,111 nM
same,LC50 (concentration causing 50% net cell kill),[8]; DU-145,463 nM
same,TGI DU-145,[8]; DU-145,2.54E−07 Molar
same,GI50,[9]; IGROV,47.2 nM
same,LC50 (concentration causing 50% net cell killing),[9]; IGROV,155 nM
same,TGI IGROV,[9]; IGROV,9.40E−08 Molar
same,TGI A-549,[10]; A-549,3.96E−07 Molar
same,GI50,[10]; A-549,224 nM
same,CC50,[10]; A-549,848 nM
same,GI50,[11]; K-562,560 nM
same,TGI K-562,[11]; K-562,9.28E−07 Molar
same,CC50,[11]; K-562,1420 nM
same,TGI HT-29,[12]; HT-29,9.77E−08 Molar
same,GI50,[12]; HT-29,62.7 nM
same,CC50,[12]; HT-29,152 nM
same,GI50,[13]; SK-BR-3,27.3 nM
same,LC50,[13]; SK-BR-3,136 nM
same,TGI SK-BR-3,[13]; SK-BR-3,5.34E−08 Molar
"C/C=C1\NC(=O)[C@H](Cc2cccc(Cl)c2)NC(=O)[C@@H](C(C)C)NC(=O)[C@@H]([C@@H](C)CC)NC(=O)[C@H](NC(=O)[C@H](NC(=O)[C@H](CCCN)NC(=O)[C@H]2CCCN2C(=O)[C@H](NC(=O)[C@@H](NC(=O)[C@@H](NC(=O)[C@H](NC(=O)CCCC(C)C)C(C)C)[C@@H](C)O)C(C)C)C(C)C)[C@@H](C)CC)[C@@H](C)OC(=O)[C@H](C(C)C)NC1=O [Compound 82, [Phe(3-Cl)^3]-KF]",GI50,[1]; PANC-1,965 nM
same,TGI PANC-1,[1]; PANC-1,1.84E−06 Molar
same,CC50,[1]; PANC-1,1840 nM
same,GI50,[2]; IGROV-ET,110 nM
same,TGI IGROV-ET,[2]; IGROV-ET,2.20E−07 Molar
same,CC50,[2]; IGROV-ET,576 nM
same,GI50,[3]; LOVO,40.6 nM
same,TGI LOVO,[3]; LOVO,8.73E−08 Molar
same,CC50,[3]; LOVO,180 nM
same,GI50,[4]; MEL-28,297 nM
same,TGI MEL-28,[4]; MEL-28,4.41E−07 Molar
same,CC50,[4]; MEL-28,935 nM
same,GI50,[5]; HELA-APL,192 nM
same,TGI HELA-APL,[5]; HELA-APL,3.25E−07 Molar
same,CC50,[5]; HELA-APL,551 nM
same,GI50,[6]; HELA,127 nM
same,TGI HELA,[6]; HELA,2.75E−07 Molar
same,CC50,[6]; HELA,521 nM
same,GI50,[7]; LOVO-DOX,45.3 nM
same,TGI LOVO-DOX,[7]; LOVO-DOX,9.10E−08 Molar
same,CC50,[7]; LOVO-DOX,892 nM
same,GI50,[8]; DU-145,209 nM
same,LC50 (concentration causing 50% net cell kill),[8]; DU-145,553 nM
same,TGI DU-145,[8]; DU-145,3.40E−07 Molar
same,GI50,[9]; IGROV,69.5 nM
same,LC50 (concentration causing 50% net cell killing),[9]; IGROV,182 nM
same,TGI IGROV,[9]; IGROV,1.13E−07 Molar
same,TGI A-549,[10]; A-549,6.03E−07 Molar
same,GI50,[10]; A-549,291 nM
same,CC50,[10]; A-549,1490 nM
same,GI50,[11]; K-562,658 nM
same,TGI K-562,[11]; K-562,1.02E−06 Molar
same,CC50,[11]; K-562,1590 nM
same,TGI HT-29,[12]; HT-29,1.19E−07 Molar
same,GI50,[12]; HT-29,77.5 nM
same,CC50,[12]; HT-29,187 nM
same,GI50,[13]; SK-BR-3,58.9 nM
same,LC50,[13]; SK-BR-3,184 nM
same,TGI SK-BR-3,[13]; SK-BR-3,1.04E−07 Molar
